Read-outs that look alike come from different tables or passages of the source. Blank lines part the entries; values can stand above or below the compound they belong to.
Columns and labels:
H1650 cells = experiment: MTT assay for cell proliferation and cytotoxicity; format: cell-based; settings: Homo sapiens, NCI-H1650, 48 h, read-out: IC50 H1650
Protocol: (§3) The compounds were dissolved in DMSO to make a 50 mM stock solution and were diluted to the concentration of working solutions with the complete growth medium before administration.
(§4) Cells were seeded in 96-well plates with densities of 2,200–2,500 cells/well in 100 μL. One day after seeding, the concentration of the test compounds between 0 and 50 μM, 0.1% DMSO was added to cells as control. […] After 48 h, MTT was added and incubated in the plate for 1–4 h in the incubator.

KYSE70TR cells = experiment: MTT assay, drug-resistant cell line; format: cell-based, human
Protocol: as §3, §4

KYSE450TR cells [1] = experiment: MTT assay, drug-resistant cell line; format: cell-based, human
Protocol: as §3, §4

KYSE410TR cells = experiment: MTT assay, drug-resistant cell line; format: cell-based, human
Protocol: as §3, §4

KYSE70 cells = experiment: MTT assay for cell proliferation and cytotoxicity; format: cell-based; settings: Homo sapiens, KYSE-70, 48 h, read-out: IC50 KYSE70
Protocol: as §3, §4

H1650TR cells = experiment: MTT assay, drug-resistant cell line; format: cell-based, human
Protocol: as §3, §4

HCC827GR cells = experiment: MTT assay, drug-resistant cell line; format: cell-based, human
Protocol: as §3, §4

KYSE450 cells [2] = experiment: Flow cytometry detection for cell apoptosis (Annexin V/PI); format: cell-based, human; settings: 48 h
Protocol: (§1) Cell apoptosis analysis was carried out by flow cytometry using the Annexin V/PI apoptosis methods. […] The cells were harvested and incubated with 250 μL of 1 × Annexin V binding buffer containing 5 μL of PI and 5 μL of FITC Annexin V (final concentration 1.8 μg/ml, Biolegend cat: 640945) for 15 min at room temperature in the dark. Then 200 µL of 1 × binding buffer was added for flow cytometry analysis (BD FACSCalibur™ Flow Cytometer).

KYSE450TR cells [3] = experiment: as above; format: cell-based, human; settings: 48 h
Protocol: as §1

[4] = test system: human esophageal epithelial cell SHEE; experiment: MTT assay, toxicity against normal cells; format: cell-based; settings: Homo sapiens, read-out: IC50 SHEE
Protocol: Cells were seeded in 96-well plates with densities of 2,200–2,500 cells/well in 100 μL. One day after seeding, the concentration of the test compounds between 0 and 50 μM, 0.1% DMSO was added to cells as control. Approximately 2200-2500 transfected cells in 100 μL were incubated in quintuplicate in 96-well plates. After 48 h, MTT was added and incubated in the plate for 1–4 h in the incubator.

KYSE450 cells [5] = experiment: MTT assay for cell proliferation and cytotoxicity; format: cell-based; settings: Homo sapiens, KYSE-450, 48 h, read-out: IC50 KYSE450
Protocol: as §3, §4

KYSE410 cells = experiment: MTT assay for cell proliferation and cytotoxicity; format: cell-based; settings: Homo sapiens, KYSE-410, 48 h, read-out: IC50 KYSE410
Protocol: as §3, §4

KYSE 450 = experiment: Resistance index determination of drug resistance cell lines; format: cell-based; settings: Homo sapiens
Protocol: (§2) […]. Three types of esophageal cancer cell lines KYSE70TR, KYSE410TR, and KYSE450TR which were resistant to paclitaxel, and NSCLC cell lines HCC827GR and H1650TR, which were resistant to gefitinib and paclitaxel, respectively, were also tested for the comparison purpose.

KYSE 410 = experiment: as above; format: cell-based; settings: Homo sapiens
Protocol: as §2

H1650 = experiment: as above; format: cell-based; settings: Homo sapiens
Protocol: as §2

KYSE 70 = experiment: as above; format: cell-based; settings: Homo sapiens
Protocol: as §2

KYSE 450TR = experiment: as above; format: cell-based, human; settings: for IC50: Homo sapiens, KYSE 450TR
Protocol: as §2

H1650TR = experiment: as above; format: cell-based, human; settings: for IC50: Homo sapiens, H1650TR
Protocol: as §2

KYSE 410TR = experiment: as above; format: cell-based, human; settings: for IC50: Homo sapiens, KYSE 410TR
Protocol: as §2

KYSE 70TR = experiment: as above; format: cell-based, human; settings: for IC50: Homo sapiens, KYSE 70TR
Protocol: as §2

IC50 (H1650TR cells; Homo sapiens, read-out: IC50 H1650TR, MTT, paclitaxel-resistant lung cancer cell line): > 10 µM
IC50 (H1650TR cells; read-out: IC50 H1650TR, MTT, paclitaxel-resistant lung cancer cell line): > 20 µM
IC50 (HCC827GR cells; Homo sapiens, read-out: IC50 HCC827GR, MTT, gefitinib-resistant lung cancer cell line): > 10 µM
IC50 (HCC827GR cells; read-out: IC50 HCC827GR, MTT, gefitinib-resistant lung cancer cell line): > 20 µM
Structure (SMILES): C#Cc1cccc(Nc2ncnc3cc(OCCOC)c(OCCOC)cc23)c1 [Erlotinib]
IC50 (H1650 cells): 14 ± 1.19 µM
IC50 (KYSE70TR cells; Homo sapiens, read-out: IC50 KYSE70TR, MTT, paclitaxel-resistant esophageal cancer cell line): > 10 µM
IC50 (KYSE70TR cells; read-out: IC50 KYSE70TR, MTT, paclitaxel-resistant esophageal cancer cell line): > 20 µM
IC50 (KYSE450TR cells [1]; Homo sapiens, read-out: IC50 KYSE450TR, MTT, paclitaxel-resistant esophageal cancer cell line): > 10 µM
IC50 (KYSE450TR cells [1]; read-out: IC50 KYSE450TR, MTT, paclitaxel-resistant esophageal cancer cell line): > 20 µM
IC50 (KYSE410TR cells; Homo sapiens, read-out: IC50 KYSE410TR, MTT, paclitaxel-resistant esophageal cancer cell line): > 10 µM
IC50 (KYSE410TR cells; read-out: IC50 KYSE410TR, MTT, paclitaxel-resistant esophageal cancer cell line): > 20 µM
IC50 (KYSE70 cells): > 50 µM
proportion of apoptotic cells (KYSE450 cells [2]; KYSE450, 5 μM): 7.04%
proportion of apoptotic cells (KYSE450 cells [2]; KYSE450, 10 μM): 8.94%
proportion of apoptotic cells (KYSE450TR cells [3]; 5 μM): 10.16%
proportion of apoptotic cells (KYSE450TR cells [3]; 10 μM): 16.68%
IC50 [4]: 21 ± 2.11 µM
IC50 (KYSE450 cells [5]): 7.6 ± 0.51 µM
IC50 (KYSE410 cells): 5 ± 0.46 µM

IC50 (KYSE 450; KYSE 450, 24 h, read-out: 24 h IC50): 55.03 ± 0.33 nM
IC50 (KYSE 450; KYSE 450, 48 h, read-out: 48 h IC50): 7.82 ± 0.84 nM
IC50 (KYSE 410; KYSE 410, 24 h, read-out: 24 h IC50): 1280 ± 69.3 nM
IC50 (KYSE 410; KYSE 410, 48 h, read-out: 48 h IC50): 52 ± 3.45 nM
IC50 (H1650; NCI-H1650, 24 h, read-out: 24 h IC50): 870 ± 43.5 nM
IC50 (H1650; NCI-H1650, 48 h, read-out: 48 h IC50): 83.3 ± 3.33 nM
IC50 (KYSE 70; KYSE 70, 24 h, read-out: 24 h IC50): 640 ± 43 nM
IC50 (KYSE 70; KYSE 70, 48 h, read-out: 48 h IC50): 20.2 nM
IC50 (KYSE 450TR; 24 h, read-out: 24 h IC50): 266 ± 66.1 nM
IC50 (KYSE 450TR; 48 h, read-out: 48 h IC50): 120 ± 32.1 nM
IC50 (H1650TR; 24 h, read-out: 24 h IC50): 4130 ± 208 nM
IC50 (H1650TR; 48 h, read-out: 48 h IC50): 645 ± 45 nM
IC50 (KYSE 410TR; 24 h, read-out: 24 h IC50): 6.4 ± 0.43 µM
IC50 (KYSE 410TR; 48 h, read-out: 48 h IC50): 1.71 ± 0.0864 µM
IC50 (KYSE 70TR; 24 h, read-out: 24 h IC50): 4.92 ± 0.274 µM
IC50 (KYSE 70TR; 48 h, read-out: 48 h IC50): 1.12 ± 0.0352 µM
Structure (SMILES): CC(=O)O[C@H]1C(=O)[C@@]2(C)[C@H]([C@H](OC(=O)c3ccccc3)[C@]3(O)C[C@H](OC(=O)[C@H](O)[C@@H](NC(=O)c4ccccc4)c4ccccc4)C(C)=C1C3(C)C)[C@]1(OC(C)=O)CO[C@@H]1C[C@@H]2O [paclitaxel]
Resistance index (KYSE 450TR; KYSE 450TR vs KYSE 450, 24 h IC50): 4.84
Resistance index (KYSE 450TR; KYSE 450TR vs KYSE 450, 48 h IC50): 15.38
Resistance index (H1650TR; H1650TR vs H1650, 24 h IC50): 4.74
Resistance index (H1650TR; H1650TR vs H1650, 48 h IC50): 7.74
Resistance index (KYSE 410TR; KYSE 410TR vs KYSE 410, 24 h IC50): 5
Resistance index (KYSE 410TR; KYSE 410TR vs KYSE 410, 48 h IC50): 32.88
Resistance index (KYSE 70TR; KYSE 70TR vs KYSE 70, 24 h IC50): 7.69
Resistance index (KYSE 70TR; KYSE 70TR vs KYSE 70, 48 h IC50): 56

— publication PMC9065260 (Frontiers in Pharmacology, 2022)
